Measurements published in patent US20170349550A1, “ACTIVE COMPOUND COMBINATIONS” (BAYER CROPSCIENCE AKTIENGESELLSCHAFT, priority 2014, published 2017).
Values joined by “and” are separate entries in the source; they are usually repeats but may differ in a detail not shown here. Equal values may be shown once. Read-outs that look alike come from different tables or passages of the source.

Key:
[1] = test system: Septoria tritici; test: in vivo preventive Septoria tritici test (wheat); conditions: 21 days after inoculation
Protocol: After the spray coating has been dried, the plants are sprayed with a spore suspension of Septoria tritici. […] The plants are placed in the greenhouse at a temperature of approximately 15° C. and a relative atmospheric humidity of approximately 80%.
The test is evaluated 21 days after the inoculation.

[2] = test system: Blumeria graminis f.sp. hordei; test: in vivo preventive Blumeria test (barley); conditions: 7 days after inoculation
[3] = test system: Leptosphaeria nodorum; test: in vivo preventive Leptosphaeria nodorum test (wheat); conditions: 8 days after inoculation
Protocol: After the spray coating has been dried, the plants are sprayed with a spore suspension of Leptosphaeria nodorum. […] The plants are placed in the greenhouse at a temperature of approximately 25° C. and a relative atmospheric humidity of approximately 80%.
(§1) The test is evaluated 8 days after the inoculation.

[4] = test system: Fusarium graminearum; format: in vivo; conditions: barley, 5 days after inoculation
[5] = test system: Fusarium nivale (var. majus); test: in vivo preventive Fusarium nivale (var. majus) test (wheat); conditions: 5 days after inoculation
Protocol: After the spray coating has been dried, the plants are slightly injured by using a sandblast and afterwards they are sprayed with a conidia suspension of Fusarium nivale (var. majus). The plants are placed in the greenhouse under a translucent incubation cabinet at a temperature of approximately 10° C. and a relative atmospheric humidity of approximately 100%.
The test is evaluated 5 days after the inoculation.

[6] = test system: Puccinia triticina; test: in vivo preventive Puccinia triticina test (wheat); conditions: 8 days after inoculation
Protocol: After the spray coating has been dried, the plants are sprayed with a spore suspension of Puccinia triticina.
as §1

[7] = test system: Venturia inaequalis; test: in vivo preventive test on Venturia test (apples); conditions: 10 days after inoculation
Protocol: The plants are then placed in a greenhouse at approximately 21° C. and a relative atmospheric humidity of approximately 90%.
The test is evaluated 10 days after the inoculation.

[8] = test system: Botrytis cinerea; test: in vivo preventive test on Botrytis test (beans); conditions: size of lesions 2 days after inoculation
Protocol: Solvent: 24.5 parts by weight of acetone • 24.5 parts by weight of dimethylacetamide Emulsifier: 1 part by weight of alkylaryl polyglycol ether
After the spray coating has dried on, 2 small pieces of agar covered with growth of Botrytis cinerea are placed on each leaf. The inoculated plants are placed in a darkened chamber at 20° C. and a relative atmospheric humidity of 100%.
2 days after the inoculation, the size of the lesions on the leaves is evaluated.

[9] = test system: Sphaerotheca fuliginea; test: in vivo preventive test on Sphaerotheca test (cucumbers); conditions: 7 days after inoculation
Protocol: After the spray coating has dried on, the plants are inoculated with an aqueous spore suspension of Sphaerotheca fuliginea. The plants are then placed in a greenhouse at approximately 23° C. and a relative atmospheric humidity of approximately 70%.
(§2) The test is evaluated 7 days after the inoculation.

[10] = test system: Alternaria solani; test: in vivo preventive test on Alternaria test (tomatoes); conditions: 3 days after inoculation
Protocol: After the spray coating has dried on, the plants are inoculated with an aqueous spore suspension of Alternaria solani.
The test is evaluated 3 days after the inoculation.

[11] = test system: Phakopsora pachyrhizi; test: in vivo preventive test on Phakopsora test (soybeans); conditions: 7 days after inoculation
Protocol: After the spray coating has dried on, the plants are inoculated with an aqueous spore suspension of the causal agent of soybean rust (Phakopsora pachyrhizi) and stay for 24 h without light in an incubation cabinet at approximately 24° C. and a relative atmospheric humidity of 95%. The plants remain in the incubation cabinet at approximately 24° C. and a relative atmospheric humidity of approximately 80% and a day/night interval of 12 h.
as §2

[12] = test system: Uromyces appendiculatus; test: in vivo preventive test on Uromyces test (beans); conditions: 10 days after inoculation
Protocol: The plants are then placed in a greenhouse at approximately 21° C. and a relative atmospheric humidity of approximately 90%. The test is evaluated 10 days after the inoculation.

[13] = test system: Pyrenophora teres; test: in vivo preventive Pyrenophora teres test (barley); conditions: 8 days after inoculation
Protocol: After the spray coating has been dried, the plants are sprayed with a spore suspension of Pyrenophora teres.
as §1

Row | Molecule | Efficacy in % found ([1]; 25 ppm a.i.) [%] | Efficacy in % found ([1]; 50 ppm a.i.) | Efficacy in % found ([2]; 25 ppm a.i.) | Efficacy in % found ([3]; 25 ppm a.i.) [%] | Efficacy in % found ([3]; 50 ppm a.i.) | Efficacy in % found ([4]; 50 ppm a.i.) [%] | Efficacy in % found ([6]; 25 ppm a.i.) [%] | Efficacy in % found ([10]; 0.5 ppm a.i.) | Efficacy in % found ([10]; 1 ppm a.i.) [%] | Efficacy in % found ([11]; 0.25 ppm a.i.) | Efficacy in % found ([6]; 50 ppm a.i.) | Efficacy in % found ([11]; 0.5 ppm a.i.) | Efficacy in % found ([3]; 100 ppm a.i.) [%] | further results
1 | Fc1ccc([C@]2(Cn3cncn3)O[C@H]2c2ccccc2Cl)cc1 (racemic) [1.12, epoxiconazole] | 0 | 63% and 33% | 30% | 43 | 57% | 0 | 40 | – | – | – | – | – | – | Efficacy in % found ([2]; 12.5 ppm a.i.): 14%; Efficacy in % found ([5]; 12.5 ppm a.i.): 13%
2 | OC(Cn1cncn1)(c1ccc(F)cc1)c1ccccc1F (centres unmarked) [1.22, flutriafol] | – | – | – | – | – | – | – | 0% | 0 | 0% | – | – | – | Efficacy in % found ([7]; 0.25 ppm a.i.): 0%; Efficacy in % found ([7]; 0.5 ppm a.i.): 0%; Efficacy in % found ([7]; 1 ppm a.i.): 8%; Efficacy in % found ([8]; 0.25 ppm a.i.): 0%; Efficacy in % found ([8]; 0.5 ppm a.i.): 15%; Efficacy in % found ([8]; 1 ppm a.i.): 30%; Efficacy in % found ([9]; 1 ppm a.i.): 24%; Efficacy in % found ([10]; 0.25 ppm a.i.): 0%; Efficacy in % found ([11]; 1 ppm a.i.): 0%
3 | CC1(C)CCC(Cc2ccc(Cl)cc2)C1(O)Cn1cncn1 (centres unmarked) [1.30, metconazole] | 17 | 33% | 93% and 80% | 0 | – | 14 | 20 | – | – | – | 10% | – | – | Efficacy in % found ([2]; 50 ppm a.i.): 93%; Efficacy in % found ([6]; 12.5 ppm a.i.): 0%
4 | OC(Cc1ccccc1Cl)(Cn1nc[nH]c1=S)C1(Cl)CC1 (centres unmarked) [1.41, prothioconazole] | – | – | – | – | – | – | – | 15% and 8% | 15 | 0% | – | 0% | – | Efficacy in % found ([7]; 1 ppm a.i.): 0%; Efficacy in % found ([12]; 0.25 ppm a.i.): 0%; Efficacy in % found ([12]; 1 ppm a.i.): 0%
5 | CC(C)(C)C(O)(CCc1ccc(Cl)cc1)Cn1cncn1 (centres unmarked) [1.47, tebuconazole] | – | – | – | – | – | – | – | 8% and 0% | – | 0% | – | 0% | – | Efficacy in % found ([12]; 0.25 ppm a.i.): 0%; Efficacy in % found ([12]; 0.5 ppm a.i.): 0%; Efficacy in % found ([12]; 1 ppm a.i.): 0%; Efficacy in % found ([10]; 0.25 ppm a.i.): 0%
6 | CCC1CC(C)(C)c2cccc(NC(=O)c3cccnc3C(F)F)c21 (centres unmarked) [(I-3), 2-(difluoromethyl)-N-(3-ethyl-1,1-dimethyl-2,3-dihydro-1H-inden-4-yl)nicotinamide] | – | – | 0% | 0 | 14% | – | – | 23% | – | – | – | – | 43 | Efficacy in % found ([1]; 100 ppm a.i.): 83%; Efficacy in % found ([7]; 1 ppm a.i.): 11%; Efficacy in % found ([4]; 25 ppm a.i.): 0%; Efficacy in % found ([12]; 0.25 ppm a.i.): 90%; Efficacy in % found ([9]; 0.5 ppm a.i.): 0%
7 | CC[C@@H]1CC(C)(C)c2cccc(NC(=O)c3cccnc3C(F)F)c21 [(I-4), 2-(difluoromethyl)-N-[(3R)-3-ethyl-1,1-dimethyl-2,3-dihydro-1H-inden-4-yl]nicotinamide] | 75 | 75% | – | – | 0% | – | – | – | 40 | 33% and 65% | – | 75% | – | Efficacy in % found ([2]; 50 ppm a.i.): 0%; Efficacy in % found ([7]; 0.5 ppm a.i.): 16%; Efficacy in % found ([5]; 12.5 ppm a.i.): 13%; Efficacy in % found ([5]; 25 ppm a.i.): 13%
8 | CCCC1CC(C)(C)c2cccc(NC(=O)c3cccnc3C(F)F)c21 (centres unmarked) [(I-5), 2-(difluoromethyl)-N-(1,1-dimethyl-3-propyl-2,3-dihydro-1H-inden-4-yl)nicotinamide] | – | – | – | – | 38% | 29 | – | – | – | 43% and 60% | – | 78% and 89% | 38 | Efficacy in % found ([4]; 25 ppm a.i.): 0%; Efficacy in % found ([12]; 0.5 ppm a.i.): 95%; Efficacy in % found ([6]; 12.5 ppm a.i.): 30%
9 | CCC[C@@H]1CC(C)(C)c2cccc(NC(=O)c3cccnc3C(F)F)c21 [(I-6), 2-(difluoromethyl)-N-[(3R)-1,1-dimethyl-3-propyl-2,3-dihydro-1H-inden-4-yl]nicotinamide] | – | 75% | 40% | – | 14% | – | – | – | 27 | 60% and 75% | – | – | – | Efficacy in % found ([10]; 0.25 ppm a.i.): 16%
10 | cyproconazole [1.5] | – | 50% | – | – | 0% | – | 70 | – | – | – | 80% | – | – | Efficacy in % found ([1]; 100 ppm a.i.): 17%; Efficacy in % found ([3]; 12.5 ppm a.i.): 0%; Efficacy in % found ([13]; 25 ppm a.i.): 25% and 22%; Efficacy in % found ([13]; 50 ppm a.i.): 25%; Efficacy in % found ([13]; 100 ppm a.i.): 0%
11 | difenoconazole [1.7] | – | 0% | – | 29 | 29% and 43% | 0 | 20 | – | – | – | 50% | – | 13 | Efficacy in % found ([2]; 50 ppm a.i.): 60% and 71% and 40%; Efficacy in % found ([4]; 100 ppm a.i.): 0%; Efficacy in % found ([5]; 12.5 ppm a.i.): 0%; Efficacy in % found ([13]; 12.5 ppm a.i.): 22%; Efficacy in % found ([13]; 50 ppm a.i.): 13%; Efficacy in % found ([6]; 12.5 ppm a.i.): 0%
12 | propiconazole [1.40] | 0 | 0% | 43% and 80% | – | – | – | 25 | – | – | – | 0% and 10% | – | 25 | Efficacy in % found ([1]; 100 ppm a.i.): 38%; Efficacy in % found ([13]; 25 ppm a.i.): 22%; Efficacy in % found ([13]; 50 ppm a.i.): 13% and 25%; Efficacy in % found ([13]; 100 ppm a.i.): 25%
